In paper PMC12266748, “A Xanthine Derivative With Novel Heat Shock Protein 90‐Alpha Inhibitory and Senolytic Properties” (Aging Cell, 2025):

Test system: C57BL/6J mice
Experiment: Extended study in geriatric C57BL/6J mice (biochemistry, function, necropsy, cytokines, SA-β-gal in organs)
Format: in vivo, mouse
Description: Sections were prepared from organs and ear biopsies from snap‐frozen tissues and mounted on SuperFrost Plus slides (VWR). SA‐β‐gal staining was performed according to the manufacturer's instructions for the Sigma‐Aldrich‐QIA117 staining kit (Sigma‐Aldrich). Nuclei were counterstained with Nuclear Fast Red (Sigma‐Aldrich), and images were acquired using a Zeiss AxioCam HRc mounted on a Leitz Laborlux S light microscope. The percentage of senescent cells was determined with QuPath v. 0.3.2 (Bankhead et al. [2017]).
All experiments were performed per the European Community Council Directives of 2010/63/UE. The pilot study (PS) investigated safety and potential senolytic efficacy, and the Extended study (ES) investigated functional changes, pathological phenotype, and the principal organ targeted by K5. Protocols were approved according to current Italian law (D.Lgs. n. 26/2014) by OPBA (animal care and health committee) of IRCCS INRCA and by the General Direction of Animal Health and Veterinary Drugs of the Italian Ministry of Health with authorization n°‐137/2021‐PR for PS and authorization n°‐370/2022‐PR for ES. In the PS of p16‐3MR mice (26 months), bioluminescence associated with p16‐expression was monitored before and after treatment, and the health of the mice was longitudinally studied. The ES used geriatric C57BL/6J mice (31 months). Clinical health and physical performance were analyzed before and after K5 treatment. Subsequently, the animals were euthanized, gross necropsies were performed, and organs were collected for further analysis. Detailed protocols are reported in the extended section.
Blood samples were collected from the right retroorbital plexus. Glucose (GLUC), creatinine (CREA), aspartate aminotransferase (AST/GOT), and alanine aminotransferase (ALT/GPT) were determined in EDTA‐plasma by using an automated analyzer (Cobas Mira, Roche) according to the manufacturer's instructions. Cytokines were measured in EDTA‐plasma using the ProcartaPlex Mouse Cytokine & Chemokine Panel 1, 26plex (Thermofisher) and read in the Luminex 200 instrument (Bio‐Rad), following the producer's recommendation.
We measured the clinical frailty index (CFI), Clinical Health Score (CHS), Physical Function Score (PFS), and Vitality Score (VS) in mice, as previously described (Marcozzi et al. [2023]). All frailty measurements were performed in a dedicated INRCA SPF animal facility area. The CFI score for each mouse was calculated as previously published (Whitehead et al. [2014]). The VS was obtained by calculating the arithmetic mean of the individual values of CHS and PFS. Several tests were assessed for endurance and speed Scores; details are reported in the extended methods.
For aged tissues: 10 μm-thick tissue sections were prepared from nine organs (liver, heart, lung, kidney, quadriceps, gastrocnemius, brain cortex, cerebellum, and hippocampus) and ear biopsies with a cryostat from snap-frozen tissues and mounted on SuperFrost Plus slides (VWR, Radnor, PA, USA). SA-β-gal staining was performed according to the manufacturer's instructions of the Sigma-Aldrich-QIA117 staining kit (Sigma-Aldrich, St. Louis, MO, USA). Nuclei were counterstained with Nuclear Fast Red (NFR) (Sigma-Aldrich, St. Louis, MO, USA), and images (from […] sections) were acquired using a Zeiss AxioCam HRc mounted on a Leitz Laborlux S light microscope. The percentage of senescent cells was determined as the mean of 3–4 images from each tissue section by counting the total and SA-β-gal-positive cells with the positive cell detection tool available in the open-source software for digital image analysis, QuPath v. 0.3.2 (Bankhead et al. 2017).
In the extended study, more geriatric C57BL/6J mice were used to confirm safety and investigate the main organs targeted by K5 (Fig. S5). For this purpose, 26 geriatric mice (14 males, 12 females, aged 31 months) and 24 geriatric mice (13 males, 11 females, and 31 months) were treated with K5 and the Vehicle. […]

[1] = geriatric C57BL/6J mice, vs control

## Cc1ccccc1-n1c(=O)n(Cc2ccccc2)c(=O)c2[nH]cnc21 [Compound K5, 1-benzyl-3-(2-methylphenyl)-7H-purine-2,6-dione]
Geriatric C57BL/6J mice, throughout the treatment period
  body weight: remained stable
Geriatric C57BL/6J mice, two rounds of three injections
  plasma levels of glucose, creatinine, GOT, and GPT, treated vs control: no significant differences
[1]
  SA-β-gal staining in the liver: significantly reduced staining
  SA-β-gal staining in the pancreas: significantly reduced staining
Geriatric C57BL/6J mice, vs controls
  circulating IL-1β: significant reduction
Treated male mice
  Physical Function Score vs control: significant increase
  Vitality Score vs control: significant increase
  tumor incidence at gross necropsy: lower incidence of tumors
